Tests used:
[1] = test system: other receptors; assay: Affinity for other receptors (preclinical data, summary statement); format: binding
[2] = molecular target: αvβ5 (Homo sapiens, UniProt P06756+P18084); assay: Affinity for αvβ5 (preclinical data, summary statement); format: binding
[3] = test system: WM266 melanoma tumor; parameters: species or system mice; details: mouse, in vivo
Description: Nude, male and female athymic mice bearing the WM266 melanoma tumor were intravenously injected with ^68Ga-Compound (˜100-150/uCi 320-480 pmol for males, ˜100-150 uCi/127-191 pmol for females, corresponding to 3.7-5.55 MBq). Animals were sacrificed in groups of four at 30 min, 1 h, 2 h and 4 h post injection. Tumor and organs of interest were collected, weighed and measured for radioactivity with a gamma-counter. The intestines and stomach were not emptied of their contents. Data were calculated as a percentage of the injected dose per gram of tissue (% ID/g).

[4] = molecular target: αvβ3 (Homo sapiens, UniProt P05106+P06756); assay: Affinity for αvβ3 (preclinical data, summary statement); format: binding
αvβ3, sequence (P06756 31-889 limits assumed): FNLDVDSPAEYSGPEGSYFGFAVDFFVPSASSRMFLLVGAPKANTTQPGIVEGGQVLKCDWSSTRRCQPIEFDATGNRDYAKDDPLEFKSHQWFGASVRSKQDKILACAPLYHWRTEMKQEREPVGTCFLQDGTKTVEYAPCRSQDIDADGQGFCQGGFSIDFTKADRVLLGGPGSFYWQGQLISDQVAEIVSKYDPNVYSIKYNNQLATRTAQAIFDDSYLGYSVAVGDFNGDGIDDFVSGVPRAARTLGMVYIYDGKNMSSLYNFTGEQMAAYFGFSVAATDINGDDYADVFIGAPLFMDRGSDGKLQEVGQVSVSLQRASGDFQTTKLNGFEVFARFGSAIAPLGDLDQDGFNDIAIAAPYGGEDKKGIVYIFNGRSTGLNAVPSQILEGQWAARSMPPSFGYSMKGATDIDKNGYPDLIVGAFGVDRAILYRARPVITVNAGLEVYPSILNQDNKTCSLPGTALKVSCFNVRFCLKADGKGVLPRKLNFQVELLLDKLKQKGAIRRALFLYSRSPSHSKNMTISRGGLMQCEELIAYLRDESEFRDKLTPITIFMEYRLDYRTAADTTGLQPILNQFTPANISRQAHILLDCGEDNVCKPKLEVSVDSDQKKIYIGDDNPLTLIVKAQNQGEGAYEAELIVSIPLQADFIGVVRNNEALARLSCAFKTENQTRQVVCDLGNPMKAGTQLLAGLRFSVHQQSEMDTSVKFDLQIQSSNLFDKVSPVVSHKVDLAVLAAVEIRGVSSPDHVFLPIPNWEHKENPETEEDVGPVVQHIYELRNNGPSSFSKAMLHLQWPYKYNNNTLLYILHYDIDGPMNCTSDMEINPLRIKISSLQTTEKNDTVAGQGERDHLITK
αvβ3, sequence (P06756 891-1048 partner limits assumed): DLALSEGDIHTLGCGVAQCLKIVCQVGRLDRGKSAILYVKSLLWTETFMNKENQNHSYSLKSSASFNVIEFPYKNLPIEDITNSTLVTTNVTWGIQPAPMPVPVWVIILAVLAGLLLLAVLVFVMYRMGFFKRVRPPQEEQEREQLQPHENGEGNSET
αvβ3, sequence (P05106 27-788): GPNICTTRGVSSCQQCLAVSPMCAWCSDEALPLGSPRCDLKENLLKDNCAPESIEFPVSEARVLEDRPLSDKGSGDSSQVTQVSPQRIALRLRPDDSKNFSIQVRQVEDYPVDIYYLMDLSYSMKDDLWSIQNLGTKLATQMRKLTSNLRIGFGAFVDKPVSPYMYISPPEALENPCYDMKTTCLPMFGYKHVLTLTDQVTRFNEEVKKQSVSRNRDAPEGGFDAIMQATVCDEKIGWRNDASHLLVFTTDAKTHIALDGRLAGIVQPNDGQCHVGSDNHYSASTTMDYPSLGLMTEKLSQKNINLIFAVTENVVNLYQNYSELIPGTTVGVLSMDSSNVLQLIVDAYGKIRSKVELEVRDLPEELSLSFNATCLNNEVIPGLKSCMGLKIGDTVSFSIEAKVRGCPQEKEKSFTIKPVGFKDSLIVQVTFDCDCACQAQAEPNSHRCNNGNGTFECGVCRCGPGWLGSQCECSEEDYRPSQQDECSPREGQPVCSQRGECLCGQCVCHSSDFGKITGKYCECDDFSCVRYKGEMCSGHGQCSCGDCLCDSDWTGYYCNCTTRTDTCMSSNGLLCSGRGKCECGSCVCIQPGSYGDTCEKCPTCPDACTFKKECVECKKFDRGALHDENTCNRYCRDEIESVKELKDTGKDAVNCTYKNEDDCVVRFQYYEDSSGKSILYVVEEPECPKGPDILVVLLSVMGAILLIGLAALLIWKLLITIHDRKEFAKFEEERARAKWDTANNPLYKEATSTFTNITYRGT

[5] = Preliminary tests of FF58 resistance to radiation stress; format: physicochemical
Description: Additional tests were performed in order to evaluate the radiolysis also in more stressful conditions such as 40° C. storage temperature and rolling, decreasing antioxidant agent (sodium ascorbate and gentisic acid) amounts. The radiochemical purity (RCP) was monitored at release time and at expiration time by Radio-RP-HPLC.

αvβ5, sequence (P06756 31-889 limits assumed): as the sequence (P06756 31-889 limits assumed) above
αvβ5, sequence (P06756 891-1048 partner limits assumed): as the sequence (P06756 891-1048 partner limits assumed) above
αvβ5, sequence (P18084 24-799): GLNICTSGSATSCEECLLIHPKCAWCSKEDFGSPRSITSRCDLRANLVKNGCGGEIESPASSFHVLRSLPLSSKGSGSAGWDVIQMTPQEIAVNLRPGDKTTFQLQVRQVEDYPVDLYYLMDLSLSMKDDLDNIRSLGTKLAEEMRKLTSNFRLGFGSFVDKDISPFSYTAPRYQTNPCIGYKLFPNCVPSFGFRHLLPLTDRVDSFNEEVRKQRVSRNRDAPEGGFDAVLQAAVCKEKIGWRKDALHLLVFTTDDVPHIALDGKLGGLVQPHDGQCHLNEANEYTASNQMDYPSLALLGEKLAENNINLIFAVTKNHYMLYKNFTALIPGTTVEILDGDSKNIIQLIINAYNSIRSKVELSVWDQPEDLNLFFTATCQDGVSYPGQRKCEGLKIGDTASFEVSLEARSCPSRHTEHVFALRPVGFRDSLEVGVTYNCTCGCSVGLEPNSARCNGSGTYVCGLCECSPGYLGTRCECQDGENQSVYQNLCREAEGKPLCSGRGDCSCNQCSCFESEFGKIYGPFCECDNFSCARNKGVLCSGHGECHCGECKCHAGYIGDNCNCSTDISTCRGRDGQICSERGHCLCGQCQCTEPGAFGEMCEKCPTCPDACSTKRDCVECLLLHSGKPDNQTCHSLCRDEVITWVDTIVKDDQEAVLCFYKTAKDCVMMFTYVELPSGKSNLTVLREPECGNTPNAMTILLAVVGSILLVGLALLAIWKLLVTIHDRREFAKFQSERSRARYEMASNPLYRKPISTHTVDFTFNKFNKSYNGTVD

SMILES	affinity for other receptors [1]	affinity for αvβ5 [2]	background uptake in normal organs [3]	excretion (uptake in the kidneys and intestine) [3]	affinity for αvβ3 [4]	resistance to the radiation stress [5]
Cc1cc(OCCCC(=O)NCCNC(=O)[C@H](CS(=O)(=O)O)NC(=O)CN2CCN(CC(=O)O)CCN(CC(=O)O)CCN(CC(=O)O)CC2)cc(C)c1S(=O)(=O)NC(CNC(=O)CCCCc1ccc2c(n1)NCCC2)C(=O)O (single isomer, unassigned) [^68Ga-Compound, metal not drawn]	absence of affinity	high affinity	cleared moderately by 4 h	renal and partial hepatic excretion	high affinity	–
Cc1cc(OCCCC(=O)NCCNC(=O)[C@H](CS(=O)(=O)O)NC(=O)CN2CCN(CC(=O)O)CCN(CC(=O)O)CCN(CC(=O)O)CC2)cc(C)c1S(=O)(=O)NC(CNC(=O)CCCCc1ccc2c(n1)NCCC2)C(=O)O (stereo partly drawn) [FF58]	–	–	–	–	–	good resistance to the radiation stress

Reference: US20240050597A1, “RADIOLABELLED ALPHA-V BETA-3 AND/OR ALPHA-V BETA-5 INTEGRINS ANTAGONIST FOR USE AS THERAGNOSTIC AGENT” (ADVANCED ACCELERATOR APPLICATIONS INTERNATIONAL SA, priority 2020, published 2024)
